One molecule from paper PMC9975351 (Frontiers in Pharmacology, 2023) can be followed below.

Each structure is given as a SMILES string.

The series in a line: in vitro. It counts as in vitro ADME, human. As for the experimental part:
Metabolic stability of GRL 0617 and formation of M1 and M3 were evaluated using Silensome control, Silensome CYP2D6 and Silensome CYP3A4 incubated with 1 or 10 µM GRL 0617 in the presence of NADPH. Other metabolites were detected less than 1% of parent. […] CYP2D6 played an exclusive role in the formation of M2, but the reactions were not saturated in the concentration range used in this study and thus, the calculated Kcat, and Km were out of the experiment condition.
In addition, the contribution of specific isoform using Silensomes were evaluated, and calculated parameters were shown in Supplemental Figure S4 and Table 4. […] The contribution of specific CYP 3A4 or CYP2D6 was calculated to be 79.6% or 21.8%, respectively, using equation as equation below. Calculated % CYP isoform contribution = CLintcontrol−ClintINH ⁄ CLintcontrol ([Bohnert et al., 2016]).
incubated in Silensome control, Silensome CYP2D6, and Silensome CYP3A4 with NADPH for 0, 10,
15, 30, 45, 60, or 120 min. The remaining percentages of GRL 0617 are expressed as mean ± SD (n=3).
(1 picture or pasted object on this page, not shown here)

`Cc1ccc(N)cc1C(=O)N[C@H](C)c1cccc2ccccc12` [GRL0617, 5-amino-2-methyl-N-[(1R)-1-(1-naphthalenyl)ethyl]benzamide]: the Contribution (Silensome control (reference)) is reported as 100%. Besides, the half-life (in general, the time needed for the level to fall by half in the phase considered) at 1 µM (human, microsomes) was found to be 17.4 min. The microsomal CLint (human, microsomes, Silensome control with NADPH, read-out: Intrinsic clearance (in vitro) Clint) turned out to be 39.8 µL/min/mg.
